Tests used:
Rat Paw Edema = Rat Paw Edema Test; format: in vivo
Description: 1. Rat Paw Edema Test [methodology as per Hillebrecht, Arzneim.-Forsch (4), 607 (1954)].

granuloma = assay: Granuloma Test (Cotton Pellet Test); format: in vivo, rat
Description: 2. Granuloma Test (Cotton Pellet Test) [methodology as per R. Meier et al., Experientia 6, 469 (1950)]

Adjuvans Arthritis = Adjuvans Arthritis Test, Rat, p.o.; format: in vivo; conditions: 0.1 mg/kg p.o.
Description: 3. Adjuvans Arthritis Test, Rat, p.o. [methodology as per C. N. Pearson, Proc. Soc. Exp. Biol. 91, 95-101 (1956)].

rats = assay: Ulcer-Inducing Effect on rats; format: in vivo; conditions: rat
Description: 4. Ulcer-Inducing Effect on rats [methodology according to W. J. R. Whittle, Brit. J. Pharmacol. 55, 242-3 (1975)].

SMILES | Inhibiting effect (%) (Rat Paw Edema; 0.1 mg/kg per os) | Inhibiting effect (%) (Rat Paw Edema; dose printed ".0" mg/kg per os) | Decrease in weight of granuloma (%) (granuloma; rat dose 0.1 mg/kg per os) | Decrease in weight of granuloma (%) (granuloma; rat dose 1.0 mg/kg per os) | Inhibiting effect (%) (Adjuvans Arthritis; 14th day p.i.) | Inhibiting effect (%) (Adjuvans Arthritis; 17th day p.i.) | Ulcer-inducing effect (rats; in vivo, 1 mg/kg) | Ulcer-inducing effect (rats; in vivo, 10 mg/kg) | Ulcer-inducing effect (rats; in vivo, 100 mg/kg) | Inhibiting effect (%) (Rat Paw Edema; 3.2 mg/kg per os) | Inhibiting effect (%) (Rat Paw Edema; 5.6 mg/kg per os) | Decrease in weight of granuloma (%) (granuloma; rat dose 3.2 mg/kg per os) | Ulcer-inducing effect (rats; 3.2 mg/kg per os) | Ulcer-inducing effect (rats; 5.6 mg/kg per os) | Ulcer-inducing effect (rats; 7.5 mg/kg per os)
CCCCCC(=O)C=Cc1ccc(CCCCCCCCC(=O)OC)s1 [Example 5, 9-[5-(3-oxooct-1-enyl)thien-2-yl]nonanoic acid methyl ester] | -26 | -38 | -24 | -13 | -28 | -35 | 0 | 0 | 0 | – | – | – | – | – | –
COc1ccc2c(c1)c(CC(=O)O)c(C)n2C(=O)c1ccc(Cl)cc1 [Indomethacin, indomethacin] | – | – | -21 | – | -29 | -37 | – | – | – | -25 | -45 | -27 | ++ | +++ | +++
